# Source: patent US8329685B1, “Enhancement of the action of anti-infective agents and of central and peripheral nervous system agents and transportation of nucleic acid substances” (priority 2001, dated 2012)
# Tested on: M.Tb. drug resistant strain TV25
# Type: cell-based, Mycobacterium tuberculosis
smiles,measurement,setting,value
"NNC(=O)c1ccncc1 [INH, Isoniazid]",additional effectiveness of INH in the presence of MZL,,41.5%
same,effect of INH alone,without MZL,no effect
